Results reported in patent US11780826B2 (Amgen Inc., priority 2017, dated 2023).

Tested on: Bovine cardiac myofibrils
Test: In vitro model of dose-dependent myofibril ATPase modulation (AC1.4, pyruvate kinase/lactate dehydrogenase-coupled ATPase assay at pCa25)
Assay type: biochemical
Details: concentration at which ATPase activity was 1.4-fold higher than the bottom of the dose curve, mean of a minimum of two independent tests
Outline: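 Coupled-enzyme ATPase on bovine heart myofibrils, 1 mM ATP, EGTA/CaCl2 buffered; 340 nm readout.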

Compound | AC1.4 [µM]
N#CC1CN(S(=O)(=O)N2CCC[C@H](C(=O)N3CCC[C@@H]3C(=O)NCCc3ccc(C(F)(F)F)cc3)C2)C1 [Example 811, 1-(((3S)-1-((3-cyano-1-azetidinyl)sulfonyl)-3-piperidinyl)carbonyl)-N-(2-(4-(trifluoromethyl)phenyl)ethyl)-D-prolinamide] | 8.7795
COc1cc(C(=O)N2[C@@H](C(=O)N[C@@H](c3cc(F)c(C(F)(F)F)cc3F)C3COC3)C[C@H]3C[C@H]32)ccn1 [Example 815, (1R,3R,5R)-N-((R)-(2,5-difluoro-4-(trifluoromethyl)phenyl)(oxetan-3-yl)methyl)-2-(2-methoxyisonicotinoyl)-2-azabicyclo[3.1.0]hexane-3-carboxamide] | 2.4
CS(=O)(=O)c1cncc(C(=O)N2[C@@H](C(=O)N[C@@H](c3cc(F)c(Cl)cc3F)C(F)F)C[C@H]3C[C@H]32)c1 [Example 817, (1R,3R,5R)-N-((S)-1-(4-chloro-2,5-difluorophenyl)-2,2-difluoroethyl)-2-(5-(methylsulfonyl)nicotinoyl)-2-azabicyclo[3.1.0]hexane-3-carboxamide] | 9.115
Cc1cnn(C)c1C(=O)N1[C@@H](C(=O)N[C@@H](c2cc(F)c(C(F)(F)F)cc2F)C2COC2)C[C@H]2C[C@H]21 [Example 818, (1R,3R,5R)-N-((R)-(2,5-difluoro-4-(trifluoromethyl)phenyl)(oxetan-3-yl)methyl)-2-(1,4-dimethyl-1H-pyrazole-5-carbonyl)-2-azabicyclo[3.1.0]hexane-3-carboxamide] | 4.155
Cc1cc(C(=O)N2[C@@H](C(=O)N[C@@H](c3cc(F)c(C(F)(F)F)cc3F)C3COC3)C[C@H]3C[C@H]32)c2[nH]ncc2c1 [Example 820, (1R,3R,5R)-N-((R)-(2,5-difluoro-4-(trifluoromethyl)phenyl)(oxetan-3-yl)methyl)-2-(5-methyl-1H-indazole-7-carbonyl)-2-azabicyclo[3.1.0]hexane-3-carboxamide] | 0.9916
O=C(N[C@@H](c1cc(F)c(C(F)(F)F)cc1F)C1COC1)[C@H]1C[C@H]2C[C@H]2N1C(=O)c1cc(C(F)(F)F)on1 [Example 823, (1R,3R,5R)-N-((R)-(2,5-difluoro-4-(trifluoromethyl)phenyl)(oxetan-3-yl)methyl)-2-(5-(trifluoromethyl)isoxazole-3-carbonyl)-2-azabicyclo[3.1.0]hexane-3-carboxamide] | 2.768
Cc1noc(C(=O)N2[C@@H](C(=O)N[C@@H](c3cc(F)c(C(F)(F)F)cc3F)C3COC3)C[C@H]3C[C@H]32)c1C [Example 824, (1R,3R,5R)-N-((R)-(2,5-difluoro-4-(trifluoromethyl)phenyl)(oxetan-3-yl)methyl)-2-(3,4-dimethylisoxazole-5-carbonyl)-2-azabicyclo[3.1.0]hexane-3-carboxamide] | 8.874
Cc1noc(C)c1C(=O)N1[C@@H](C(=O)N[C@@H](c2cc(F)c(C(F)(F)F)cc2F)C2COC2)C[C@H]2C[C@H]21 [Example 825, (1R,3R,5R)-N-((R)-(2,5-difluoro-4-(trifluoromethyl)phenyl)(oxetan-3-yl)methyl)-2-(3,5-dimethylisoxazole-4-carbonyl)-2-azabicyclo[3.1.0]hexane-3-carboxamide] | 9.3793
O=C(N[C@@H](c1cc(F)c(C(F)(F)F)cc1F)C1COC1)[C@H]1C[C@H]2C[C@H]2N1C(=O)c1cc(C(F)(F)F)no1 [Example 826, (1R,3R,5R)-N-((R)-(2,5-difluoro-4-(trifluoromethyl)phenyl)(oxetan-3-yl)methyl)-2-(3-(trifluoromethyl)isoxazole-5-carbonyl)-2-azabicyclo[3.1.0]hexane-3-carboxamide] | 2.628
O=C(N[C@@H](c1cc(F)c(C(F)(F)F)cc1F)[C@H]1C[C@H](O)C1)[C@H]1C[C@H]2C[C@H]2N1C(=O)c1ccnc(C(F)F)c1 [Example 831, (1R,3R,5R)-N-((R)-(2,5-difluoro-4-(trifluoromethyl)phenyl)((lr,3R)-3-hydroxycyclobutyl)methyl)-2-(2-(difluoromethyl)isonicotinoyl)-2-azabicyclo[3.1.0]hexane-3-carboxamide] | 0.6115

Other lines, results leading:

AC1.4 [µM] | Compound
5.084 | Cc1ccc([C@H](NC(=O)[C@H]2C[C@H]3C[C@H]3N2C(=O)c2cccc(S(C)(=O)=O)c2)C2CC2)cc1F [Example 810, (1R,3R,5R)-N-((R)-cyclopropyl(3-fluoro-4-methylphenyl)methyl)-2-(3-(methylsulfonyl)benzoyl)-2-azabicyclo[3.1.0]hexane-3-carboxamide]
1.5766 | CS(=O)(=O)c1cccc(C(=O)N2[C@@H](C(=O)N[C@@H](c3cc(F)c(Cl)cc3F)C3(F)COC3)C[C@H]3C[C@H]32)c1 [Example 812, (1R,3R,5R)-N-((S)-(4-Chloro-2,5-difluorophenyl)(3-fluorooxetan-3-yl)methyl)-2-(3-(methylsulfonyl)benzoyl)-2-azabicyclo[3.1.0]hexane-3-carboxamide]
0.7101 | CS(=O)(=O)c1ccc(N)c(C(=O)N2[C@@H](C(=O)N[C@@H](c3ccc(C(F)(F)F)cc3F)C3CC3)C[C@H]3C[C@H]32)c1 [Example 813, (1R,3R,5R)-2-(2-amino-5-(methylsulfonyl)benzoyl)-N-((R)-cyclopropyl(2-fluoro-4-(trifluoromethyl)phenyl)methyl)-2-azabicyclo[3.1.0]hexane-3-carboxamide]
1.3468 | CC(C)(O)c1cccc(C(=O)N2[C@@H](C(=O)N[C@@H](c3cc(F)c(C(F)(F)F)cc3F)C3COC3)C[C@H]3C[C@H]32)c1 [Example 819, (1R,3R,5R)-N-((R)-(2,5-difluoro-4-(trifluoromethyl)phenyl)(oxetan-3-yl)methyl)-2-(3-(2-hydroxypropan-2-yl)benzoyl)-2-azabicyclo[3.1.0]hexane-3-carboxamide]
1.2142 | O=C(N[C@@H](c1cc(F)c(C(F)(F)F)cc1F)C1CC1)[C@H]1C[C@H]2C[C@H]2N1C(=O)c1cc(Cl)cc2cn[nH]c12 [Example 821, (1R,3R,5R)-2-(5-chloro-1H-indazole-7-carbonyl)-N-((R)-cyclopropyl(2,5-difluoro-4-(trifluoromethyl)phenyl)methyl)-2-azabicyclo[3.1.0]hexane-3-carboxamide]
5.894 | Cc1cc(C(=O)N2[C@@H](C(=O)N[C@@H](c3cc(F)c(C(F)(F)F)cc3F)C3CC3)C[C@H]3C[C@H]32)c(C(C)O)cn1 (stereo partly drawn) [Example 822, (1R,3R,5R)-N-((R)-cyclopropyl(2,5-difluoro-4-(trifluoromethyl)phenyl)methyl)-2-(5-(l-hydroxyethyl)-2-methylisonicotinoyl)-2-azabicyclo[3.1.0]hexane-3-carboxamide]
0.15 | CS(=O)(=O)c1cccc(C(=O)N2CCC[C@@H]2C(=O)N[C@@H](c2cc(F)c(C(F)(F)F)cc2F)[C@H]2C[C@@H](O)C2)c1 [Example 827, (R)-N-((R)-(2,5-difluoro-4-(trifluoromethyl)phenyl)((1s,3S)-3-hydroxycyclobutyl)methyl)-1-(3-(methylsulfonyl)benzoyl)pyrrolidine-2-carboxamide]
0.1639 | CS(=O)(=O)c1cccc(C(=O)N2CCC[C@@H]2C(=O)N[C@@H](c2cc(F)c(C(F)(F)F)cc2F)[C@H]2C[C@H](O)C2)c1 [Example 828, (R)-N-((R)-(2,5-difluoro-4-(trifluoromethyl)phenyl)((lr,3R)-3-hydroxycyclobutyl)methyl)-1-(3-(methylsulfonyl)benzoyl)pyrrolidine-2-carboxamide]
1.702 | CC1(O)CC([C@@H](NC(=O)[C@H]2C[C@H]3C[C@H]3N2C(=O)c2cccc(S(C)(=O)=O)c2)c2cc(F)c(C(F)(F)F)cc2F)C1 (stereo partly drawn) [Example 829, (1R,3R,5R)-N-((R)-(2,5-difluoro-4-(trifluoromethyl)phenyl)(3-hydroxy-3-methylcyclobutyl)methyl)-2-(3-(methylsulfonyl)benzoyl)-2-azabicyclo[3.1.0]hexane-3-carboxamide]
